Test results: US11597708B2, “Inhibitors of heat shock factors and uses thereof” (HSF Pharmaceuticals SA, priority 2016, dated 2023)
Structures can show the parent of a compound that is named as a salt. Where two headings read alike, the source gives them in different places.

Biological target: T1, HSF1 (Homo sapiens, UniProt Q00613)
T1 construct: functionally linked to an hsp70b promoter and therefore controlled by endogenous HSF1; endogenous in cells; host or cells: HeLa cells / HeLa-derived cell line Z74
T1 sequence (Q00613 1-529): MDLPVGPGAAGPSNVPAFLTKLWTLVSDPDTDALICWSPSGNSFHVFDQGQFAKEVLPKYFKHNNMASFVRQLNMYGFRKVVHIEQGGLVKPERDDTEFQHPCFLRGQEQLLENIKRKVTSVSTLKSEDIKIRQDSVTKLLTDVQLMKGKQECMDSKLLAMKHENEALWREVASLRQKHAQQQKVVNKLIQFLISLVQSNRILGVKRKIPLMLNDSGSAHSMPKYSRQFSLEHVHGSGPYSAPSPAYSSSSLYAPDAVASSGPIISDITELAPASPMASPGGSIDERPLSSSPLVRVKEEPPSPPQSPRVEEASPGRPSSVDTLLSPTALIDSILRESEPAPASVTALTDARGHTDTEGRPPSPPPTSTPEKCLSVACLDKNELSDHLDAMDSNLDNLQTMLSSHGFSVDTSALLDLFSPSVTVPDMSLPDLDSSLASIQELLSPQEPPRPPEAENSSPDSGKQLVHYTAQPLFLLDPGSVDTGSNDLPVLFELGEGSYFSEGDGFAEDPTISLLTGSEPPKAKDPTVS
Assay: Z74 cell-based reporter assay: heat-induced RLuc expression controlled by endogenous HSF1
Conditions: for inhibition at 12.5 µM: read-out: Inhibition of HSF1 activity at 12.5 μM IHSF [RLuc] (%); for inhibition at 25 µM: read-out: Inhibition of HSF1 activity at 25 μM IHSF [RLuc] (%); for IC50: inhibition of HSF1 activity [RLuc]
Source text: For screening this sublibrary, a cell-based assay was developed. We opted for a cell-based assay, because a cell-free assay would have had to be a DNA-binding assay. Such an assay would have limited discovery to molecules capable of interfering with the DNA-binding function of HSF1. This was thought to be too narrow a focus, considering that three of the four cavities identified in the HSF1 DNA-binding domain are not near the DNA interaction region. A straightforward cell-based assay, in which a HSF1-responsive gene would be assayed, was considered likely to be over-inclusive. Compounds would be scored as hits that inhibit any factor that is involved in HSF1 activation or prevents HSF1 deactivation. These factors include protein kinases, activators of protein phosphatases, factors affecting HSF1 mRNA stability, HSP90, HDAC6, etc. For developing a more discriminating cell-based assay, advantage was taken of the modular nature of HSF1. […] The cell-based assay developed (see below for the particular format employed) compared transactivation by wild type HSF1 and chimeric HSF1 in cells exposed to an HSF1-activating heat treatment in the presence of a sublibrary compound. A compound was scored as a hit, if it inhibited the activity of wild type HSF1 but not of chimeric HSF1.
The cell-based assay made use of HeLa-derived cell line Z74 that stably contains a gene for chimeric transcription factor LexA-(human) HSF1 under the control of a CMV early promoter, a firefly luciferase (flue) gene driven by a promoter responsive to the latter chimeric transcription factor and a Renilla luciferase (rluc) gene functionally linked to an hsp70b promoter and therefore controlled by endogenous HSF1 (FIG. 1A). As is shown in FIGS. 1B & C, the reporter genes responded similarly to heat dose, i.e., their activation depended on both duration of heat exposure and temperature of the exposure. […] Depletion of HSF1 (and LexA-HSF1) by siRNA supported the notion that this stress regulation is mediated by HSF1 (and LexA-HSF1). Therefore, the Z74 line was well suited for use in a screening assay aimed at discovering molecules that inhibit heat-induced HSF1 activity through interaction with the transcription factor's DNA-binding domain.
The compounds of the afore-mentioned biased sublibrary were screened in cell line Z74 at 12.5 and 25 μM concentrations. Typically, Z74 cultures in 96-well plates were exposed to compound or vehicle for 2 h, heat-treated at 43.0° C. for 30 min, and incubated further for 6 h at 37° C. to allow for accumulation of the luciferases. RLuc and FLuc activities were determined, typically using the Dual-Glo® Luciferase Assay System (Promega Corp., Madison, Wis.), and reading luciferase light counts in a Wallac Microbeta Trilux-1450 Luminometer (PerkinElmer, Waltham, Mass.). IHSF 001 was one of two library compounds that inhibited RLuc expression but not FLuc expression in heat-treated Z74 cells (Table 1; FIG. 2A). Therefore, IHSF 001 is an inhibitor of HSF1 function that specifically acts through the HSF1 DNA-binding domain. […] A corroborating experiment utilized a cell line containing an hsp70b promoter-driven fluc gene. […] IHSF 001 is (E)-ethyl 4-oxo-4-(thiazol-2-ylamino)but-2-enoate. The compound can be obtained from commercial sources (e.g., AKE-PB-90340538, Akos).

[1] = Z74 cells, 12.5 μM IHSF, negative values marked *: compound enhanced rLuc activity
[2] = Z74 cells, 25 μM IHSF, 2 h exposure, 43° C. 30 min, 6 h at 37° C.

| Structure (SMILES) | inhibition at 12.5 µM [1] [%] | inhibition at 25 µM [2] [%] | IC50 (Z74 cells) [µM] | inhibition at 12.5 µM [%] | inhibition at 25 µM [%] |
| --- | --- | --- | --- | --- | --- |
| CCOC(=O)/C=C/C(=O)Nc1nc2ccccc2s1 [IHSF 010, (E)-3-(Benzothiazol-2-ylcarbamoyl)-acrylic acid ethyl ester] | 56 | 56 | – | – | – |
| CCOC(=O)/C=C/C(=O)Nc1nc(-c2ccccc2)cs1 [IHSF 012, (E)-3-(4-Phenyl-thiazol-2-ylcarbamoyl)-acrylic acid ethyl ester] | 68 | 86 | 11.3 | – | – |
| CCOC(=O)/C=C/C(=O)Nc1ncc(C)s1 [IHSF 013, (E)-3-(5-Methyl-thiazol-2-ylcarbamoyl)-acrylic acid ethyl ester] | 34 | 50 | – | – | – |
| CCOC(=O)/C=C/C(=O)Nc1ncc(-c2ccccc2)s1 [IHSF 014, (E)-3-(5-Phenyl-thiazol-2-ylcarbamoyl)-acrylic acid ethyl ester] | 60 | 89 | 7.1 | – | – |
| CCOC(=O)/C=C/C(=O)Nc1ncco1 [IHSF 015, (E)-3-(Oxazol-2-ylcarbamoyl)-acrylic acid ethyl ester] | 0 | 20 | – | – | – |
| CCOC(=O)/C=C/C(=O)Nc1ccn(C)n1 [IHSF 016, (E)-3-(1-Methyl-1H-pyrazol-3-ylcarbamoyl)-acrylic acid ethyl ester] | 0 | 25 | – | – | – |
| CCOC(=O)/C=C/C(=O)Nc1ccon1 [IHSF 017, (E)-3-(Isoxazol-3-ylcarbamoyl)-acrylic acid ethyl ester] | 32 | 37 | – | – | – |
| CCOC(=O)/C=C/C(=O)Nc1nncs1 [IHSF 018, (E)-3-([1,3,4]Thiadiazol-2-ylcarbamoyl)-acrylic acid ethyl ester] | 20 | 53 | 23.6 | – | – |
| CCOC(=O)/C=C/C(=O)Nc1ccncc1 [IHSF 020, (E)-3-(Pyridin-4-ylcarbamoyl)-acrylic acid ethyl ester] | 30 | 53 | 23.5 | – | – |
| COC(=O)/C=C/C(=O)Nc1nccs1 [IHSF 027, (E)-3-(Thiazol-2-ylcarbamoyl)-acrylic acid methyl ester] | 18 | 42 | – | – | – |
| CC(C)OC(=O)/C=C/C(=O)Nc1nccs1 [IHSF 028, (E)-3-(Thiazol-2-ylcarbamoyl)-acrylic acid isopropyl ester] | 13 | 41 | – | – | – |
| CCNC(=O)/C=C/C(=O)Nc1nccs1 [IHSF 030, (E)-But-2-enedioic acid ethylamide thiazol-2-ylamide] | 5 | 18 | – | – | – |
| CC(C)NC(=O)/C=C/C(=O)Nc1nccs1 [IHSF 031, (E)-But-2-enedioic acid isopropylamide thiazol-2-ylamide] | 15 | 24 | – | – | – |
| CCCCOC(=O)/C=C/C(=O)Nc1nccs1 [IHSF 042, (E)-3-(Thiazol-2-ylcarbamoyl)-acrylic acid butyl ester] | 1 | 52 | – | – | – |
| CCOC(=O)/C=C/C(=O)Nc1cc(-c2ccccc2)cs1 [IHSF 043, (E)-3-(4-Phenyl-thiophen-2-ylcarbamoyl)-acrylic acid ethyl ester] | 32 | 5 | – | – | – |
| CCOC(=O)/C=C/C(=O)Nc1cnc(-c2ccccc2)s1 [IHSF 045, (E)-3-(2-Phenyl-thiazol-5-ylcarbamoyl)-acrylic acid ethyl ester] | 34 | 53 | – | – | – |
| CCOC(=O)/C=C/C(=O)Nc1cc(C)no1 [IHSF 046, (E)-3-(3-Methyl-isoxazol-5-ylcarbamoyl)-acrylic acid ethyl ester] | 33 | 70 | – | – | – |
| CCOC(=O)/C=C/C(=O)Nc1ccnc(C)c1 [IHSF 048, (E)-3-(2-Methyl-pyridin-4-ylcarbamoyl)-acrylic acid ethyl ester] | 37 | 67 | – | – | – |
| CCOC(=O)/C=C/C(=O)Nc1nc(C2CC2)cs1 [IHSF 053, (E)-3-(4-Cyclopropyl-thiazol-2-ylcarbamoyl)-acrylic acid ethyl ester] | 15 | 29 | – | – | – |
| CCOC(=O)/C=C/C(=O)Nc1nc(-c2ccccn2)cs1 [IHSF 054, (E)-3-(4-Pyridin-2-yl-thiazol-2-ylcarbamoyl)-acrylic acid ethyl ester] | 22 | 69 | 20.2 | – | – |
| CCOC(=O)/C=C/C(=O)Nc1nc(-c2cccnc2)cs1 [IHSF 055, (E)-3-(4-Pyridin-3-yl-thiazol-2-ylcarbamoyl)-acrylic acid ethyl ester] | 27 | 74 | 18.7 | – | – |
| CCOC(=O)/C=C/C(=O)Nc1nc(-c2ccncc2)cs1 [IHSF 056, (E)-3-(4-Pyridin-4-yl-thiazol-2-lcarbamoyl)-acrylic acid ethyl ester] | 35 | 61 | 19.8 | – | – |
| CCN(CC)C(=O)/C=C/C(=O)Nc1nc(C)cs1 [IHSF 060, (E)-But-2-enedioic acid diethyl-amide (4-methyl-thiazol-2-yl)-amide] | 16 | 19 | – | – | – |
| Cc1csc(NC(=O)/C=C/C(=O)N(C)C)n1 [IHSF 061, (E)-But-2-enedioic acid dimethyl-amide (4-methyl-thiazol-2-yl)-amide] | 12 | 18 | – | – | – |
| CCOC(=O)/C=C/C(=O)N(C)c1nccs1 [IHSF 070, (E)-3-(Methyl-thiazol-2-yl-carbamoyl)-acrylic acid ethyl ester] | 72 | 90 | 5.7 | – | – |
| CCOC(=O)/C=C/C(=O)Nc1ccnc(-c2ccncc2)c1 [IHSF 076, (E)-3-([2,4′]Bipyridinyl-4-ylcarbamoyl)-acrylic acid ethyl ester] | 56 | 66 | – | – | – |
| CCOC(=O)/C=C/C(=O)Nc1ccnc(N2CCOCC2)c1 [IHSF 077, (E)-3-(2-Morpholin-4-yl-pyridin-4-ylcarbamoyl)-acrylic acid ethyl ester formic acid salt] | – | – | – | 42 | 67 |
| CCOC(=O)/C=C/C(=O)Nc1ccnc(N2CCN(C)CC2)c1 [IHSF 078, (E)-3-[2-(4-Methyl-piperazin-1-yl)-pyridin-4-ylcarbamoyl]-acrylic acid ethyl ester formic acid salt] | – | – | – | 32 | 54 |
| CCOC(=O)/C=C/C(=O)Nc1ccnc(-c2ccccc2C)c1 [IHSF 079, (E)-3-(2-o-Tolyl-pyridin-4-ylcarbamoyl)-acrylic acid ethyl ester] | 42 | 79 | – | – | – |
